In patent US20020137929A1, “1 - (3-heterocyclylphenyl) isothiourea, -isourea, -guanidine and -amidine herbicidal agents” (Intellectual Property Department, BASF Aktiengesellschaft, priority 1998, published 2002):

Columns and labels:
[1] = system: IPOHE (Morningglory, Ivyleaf); test: Postemergence herbicidal evaluation; assay type: in vivo, Ipomoea hederacea; settings: postemergence
Outline: (§1)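 Each compound, dispersed in an acetone/water mix (50/50) carrying 0.5% TWEEN 20, is nozzle-sprayed at 40 psi on approximately two-week-old seedlings at about 0.0156–0.500 kg/ha. Plants are assessed 4–5 weeks afterward on a 0–9 scale relative to control; duplicate tests are averaged.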

[2] = system: CYPSE (Flatsedge); test: Postemergence weed control under flooded paddy conditions; assay type: in vivo, Cyperus serotinus; settings: postemergence weeds, rated 3 to 4 weeks after treatment
Outline: (§2)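 With weeds 3 to 5 cm tall and rice at the 1.5 to 2.5 leaf stage, containers were flooded and water held 1.5 to 3 cm above soil. Compounds in 50/50 v/v aqueous/acetone went into the flood water at about 0.0313 to 0.500 kg/ha a.i. Effects were visually rated 0–9 against controls after three to four weeks in the greenhouse.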

[3] = system: GLXMAW (Soybean, Williams); test: Preemergence herbicidal evaluation; assay type: in vivo, Glycine max, (L.) Merr. cv Williams; settings: rated 4-5 weeks after treatment
Outline: (§3)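 In this greenhouse assay, monocot and dicot seeds are planted in soil and treated prior to emergence with an aqueous acetone spray (about 0.0156-0.500 kg/ha). Plants are assessed visually against control on a 0-9 scale after 4-5 weeks.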

[4] = system: IPOHE (Morningglory, Ivyleaf); test: Preemergence herbicidal evaluation; assay type: in vivo, Ipomoea hederacea; settings: rated 4-5 weeks after treatment
Outline: as §3

[5] = system: SETVI (Foxtail, Green); test: Postemergence herbicidal evaluation; assay type: in vivo, Setaria viridis; settings: postemergence
Outline: as §1

[6] = system: ABUTH (Velvetleaf); test: Postemergence herbicidal evaluation; assay type: in vivo, Abutilon theophrasti; settings: postemergence
Outline: as §1

[7] = system: ORYSAT (Rice, Tebonnet); test: Postemergence herbicidal evaluation; assay type: in vivo, Oryza sativa, (L.) Tebonnet; settings: postemergence
Outline: as §1

[8] = system: ECHCG (Barnyardgrass); test: Postemergence herbicidal evaluation; assay type: in vivo, Echinochloa crus-galli; settings: postemergence
Outline: as §1

[9] = system: ABUTH (Velvetleaf); test: Preemergence herbicidal evaluation; assay type: in vivo, Abutilon theophrasti; settings: rated 4-5 weeks after treatment
Outline: as §3

[10] = system: ECHCG (Barnyardgrass); test: Preemergence herbicidal evaluation; assay type: in vivo, Echinochloa crus-galli; settings: rated 4-5 weeks after treatment
Outline: as §3

[11] = system: CYPIR (Rice Flatsedge); test: Postemergence weed control under flooded paddy conditions; assay type: in vivo, Cyperus iria; settings: postemergence weeds, rated 3 to 4 weeks after treatment
Outline: as §2

[12] = system: ZEAMX (Corn, Field); test: Postemergence herbicidal evaluation; assay type: in vivo, Zea mays; settings: postemergence
Outline: as §1

[13] = system: CHEAL (Lambsquarters, Common); test: Preemergence herbicidal evaluation; assay type: in vivo, Chenopodium album; settings: rated 4-5 weeks after treatment
Outline: as §3

[14] = system: CASOB (Sicklepod); test: Preemergence herbicidal evaluation; assay type: in vivo, Cassia obtusifolia; settings: rated 4-5 weeks after treatment
Outline: as §3

[15] = system: TRZAWR (Wheat, Winter, cv Riband); test: Preemergence herbicidal evaluation; assay type: in vivo, Triticum aestivum; settings: rated 4-5 weeks after treatment
Outline: as §3

[16] = system: CHEAL (Lambsquarters, Common); test: Postemergence herbicidal evaluation; assay type: in vivo, Chenopodium album; settings: postemergence
Outline: as §1

[17] = system: ZEAMX (Corn, Field); test: Preemergence herbicidal evaluation; assay type: in vivo, Zea mays; settings: rated 4-5 weeks after treatment
Outline: as §3

Cn1c(C(F)(F)F)cc(=O)n(-c2cc(N=C3SCC(=O)N3[C@H](Cc3ccccc3)C(=O)O)c(Cl)cc2F)c1=O [Compound 69, α-Benzyl-2-{{2-chloro-5-[3,6-dihydro-3-methyl-2,6-dioxo-4-(trifluoromethyl)-1(2H)-pyrimidinyl]-4-fluorophenyl}imino}-4-oxo-3-thiazolidineacetic acid, D-]
3.0: Herbicidal rating CYPSE ([2]; Rate 0.0313 kg/ha) | Herbicidal rating CYPSE ([2]; Rate 0.0625 kg/ha) | SETVI herbicidal rating ([5]; rate 0.0158 kg/ha) | ORYSAT herbicidal rating ([7]; rate 0.0315 kg/ha) | Preemergence herbicidal rating ECHCG ([10]; rate 0.2500 kg/ha) | Herbicidal rating CYPIR ([11]; Rate 0.0313 kg/ha) | Herbicidal rating CYPIR ([11]; Rate 0.0625 kg/ha) | Herbicidal rating CYPIR ([11]; Rate 0.1250 kg/ha) | Herbicidal rating CYPIR ([11]; Rate 0.2500 kg/ha) | Preemergence herbicidal rating ZEAMX ([17]; rate 0.1250 kg/ha) | Preemergence herbicidal rating ZEAMX ([17]; rate 0.2500 kg/ha)
0.0: Preemergence herbicidal rating GLXMAW ([3]; rate 0.0313 kg/ha) | Preemergence herbicidal rating GLXMAW ([3]; rate 0.0625 kg/ha) | Preemergence herbicidal rating IPOHE ([4]; rate 0.0313 kg/ha) | Preemergence herbicidal rating ABUTH ([9]; rate 0.0156 kg/ha) | Preemergence herbicidal rating ABUTH ([9]; rate 0.0313 kg/ha) | Preemergence herbicidal rating ECHCG ([10]; rate 0.0156 kg/ha) | Preemergence herbicidal rating ECHCG ([10]; rate 0.0313 kg/ha) | Preemergence herbicidal rating ECHCG ([10]; rate 0.0625 kg/ha) | Preemergence herbicidal rating CASOB ([14]; rate 0.0156 kg/ha) | Preemergence herbicidal rating CASOB ([14]; rate 0.0313 kg/ha) | Preemergence herbicidal rating CASOB ([14]; rate 0.0625 kg/ha) | Preemergence herbicidal rating TRZAWR ([15]; rate 0.0156 kg/ha) | Preemergence herbicidal rating TRZAWR ([15]; rate 0.0313 kg/ha) | Preemergence herbicidal rating TRZAWR ([15]; rate 0.0625 kg/ha) | Preemergence herbicidal rating ZEAMX ([17]; rate 0.0156 kg/ha) | Preemergence herbicidal rating ZEAMX ([17]; rate 0.0313 kg/ha) | Preemergence herbicidal rating ZEAMX ([17]; rate 0.0625 kg/ha)
4.5: ORYSAT herbicidal rating ([7]; rate 0.0630 kg/ha) | ZEAMX herbicidal rating ([12]; rate 0.0158 kg/ha) | ZEAMX herbicidal rating ([12]; rate 0.0315 kg/ha)
7.0: CHEAL herbicidal rating ([16]; rate 0.0158 kg/ha)
1.0: Preemergence herbicidal rating GLXMAW ([3]; rate 0.0156 kg/ha) | Preemergence herbicidal rating GLXMAW ([3]; rate 0.1250 kg/ha) | Preemergence herbicidal rating IPOHE ([4]; rate 0.1250 kg/ha) | SETVI herbicidal rating ([5]; rate 0.0315 kg/ha) | SETVI herbicidal rating ([5]; rate 0.0630 kg/ha) | ECHCG herbicidal rating ([8]; rate 0.0315 kg/ha) | Preemergence herbicidal rating ECHCG ([10]; rate 0.1250 kg/ha) | Preemergence herbicidal rating CASOB ([14]; rate 0.1250 kg/ha) | Preemergence herbicidal rating TRZAWR ([15]; rate 0.1250 kg/ha) | Preemergence herbicidal rating TRZAWR ([15]; rate 0.2500 kg/ha)
5.5: ZEAMX herbicidal rating ([12]; rate 0.0630 kg/ha)
2.5: ORYSAT herbicidal rating ([7]; rate 0.0158 kg/ha)
9.0: IPOHE herbicidal rating ([1]; rate 0.0158 kg/ha) | IPOHE herbicidal rating ([1]; rate 0.0315 kg/ha) | IPOHE herbicidal rating ([1]; rate 0.0630 kg/ha) | Herbicidal rating CYPSE ([2]; Rate 0.1250 kg/ha) | Herbicidal rating CYPSE ([2]; Rate 0.2500 kg/ha) | ABUTH herbicidal rating ([6]; rate 0.0158 kg/ha) | ABUTH herbicidal rating ([6]; rate 0.0315 kg/ha) | ABUTH herbicidal rating ([6]; rate 0.0630 kg/ha) | Preemergence herbicidal rating ABUTH ([9]; rate 0.0625 kg/ha) | Preemergence herbicidal rating ABUTH ([9]; rate 0.1250 kg/ha) | Preemergence herbicidal rating ABUTH ([9]; rate 0.2500 kg/ha) | Preemergence herbicidal rating CHEAL ([13]; rate 0.0156 kg/ha) | Preemergence herbicidal rating CHEAL ([13]; rate 0.0313 kg/ha) | Preemergence herbicidal rating CHEAL ([13]; rate 0.0625 kg/ha) | Preemergence herbicidal rating CHEAL ([13]; rate 0.1250 kg/ha) | Preemergence herbicidal rating CHEAL ([13]; rate 0.2500 kg/ha) | CHEAL herbicidal rating ([16]; rate 0.0315 kg/ha)
2.0: Preemergence herbicidal rating GLXMAW ([3]; rate 0.2500 kg/ha) | Preemergence herbicidal rating IPOHE ([4]; rate 0.0625 kg/ha) | ECHCG herbicidal rating ([8]; rate 0.0158 kg/ha)
4.0: Preemergence herbicidal rating IPOHE ([4]; rate 0.2500 kg/ha) | ECHCG herbicidal rating ([8]; rate 0.0630 kg/ha)
5.0: Preemergence herbicidal rating CASOB ([14]; rate 0.2500 kg/ha)

COC(=O)[C@H](Cc1ccccc1)N1C(=O)CS/C1=N/c1cc(-n2c(=O)cc(C(F)(F)F)n(C)c2=O)c(F)cc1Cl [Compound 72, Methyl α-benzyl-2-{{2-chloro-5-[3,6-dihydro-3-methyl-2,6-dioxo-4-(trifluoromethyl)-1(2H)-pyrimidinyl]-4-fluorophenyl]imino}-4-oxo-3-thiazolidineacetate, L-]
2.0: Preemergence herbicidal rating IPOHE ([4]; rate 0.1250 kg/ha) | SETVI herbicidal rating ([5]; rate 0.0158 kg/ha) | SETVI herbicidal rating ([5]; rate 0.0630 kg/ha) | Preemergence herbicidal rating ABUTH ([9]; rate 0.0156 kg/ha) | Preemergence herbicidal rating TRZAWR ([15]; rate 0.2500 kg/ha)
4.5: ORYSAT herbicidal rating ([7]; rate 0.0630 kg/ha) | ZEAMX herbicidal rating ([12]; rate 0.0315 kg/ha)
7.0: IPOHE herbicidal rating ([1]; rate 0.0315 kg/ha) | Preemergence herbicidal rating IPOHE ([4]; rate 0.2500 kg/ha) | Herbicidal rating CYPIR ([11]; Rate 0.1250 kg/ha) | CHEAL herbicidal rating ([16]; rate 0.0158 kg/ha)
3.0: Preemergence herbicidal rating GLXMAW ([3]; rate 0.2500 kg/ha) | ECHCG herbicidal rating ([8]; rate 0.0315 kg/ha) | ECHCG herbicidal rating ([8]; rate 0.0630 kg/ha) | Preemergence herbicidal rating ECHCG ([10]; rate 0.2500 kg/ha)
3.5: ORYSAT herbicidal rating ([7]; rate 0.0158 kg/ha) | ORYSAT herbicidal rating ([7]; rate 0.0315 kg/ha)
6.5: ZEAMX herbicidal rating ([12]; rate 0.0630 kg/ha)
9.0: IPOHE herbicidal rating ([1]; rate 0.0158 kg/ha) | IPOHE herbicidal rating ([1]; rate 0.0630 kg/ha) | Herbicidal rating CYPSE ([2]; Rate 0.1250 kg/ha) | Herbicidal rating CYPSE ([2]; Rate 0.2500 kg/ha) | ABUTH herbicidal rating ([6]; rate 0.0158 kg/ha) | ABUTH herbicidal rating ([6]; rate 0.0315 kg/ha) | ABUTH herbicidal rating ([6]; rate 0.0630 kg/ha) | Preemergence herbicidal rating ABUTH ([9]; rate 0.0313 kg/ha) | Preemergence herbicidal rating ABUTH ([9]; rate 0.0625 kg/ha) | Preemergence herbicidal rating ABUTH ([9]; rate 0.1250 kg/ha) | Preemergence herbicidal rating ABUTH ([9]; rate 0.2500 kg/ha) | Herbicidal rating CYPIR ([11]; Rate 0.2500 kg/ha) | Preemergence herbicidal rating CHEAL ([13]; rate 0.0156 kg/ha) | Preemergence herbicidal rating CHEAL ([13]; rate 0.0313 kg/ha) | Preemergence herbicidal rating CHEAL ([13]; rate 0.0625 kg/ha) | Preemergence herbicidal rating CHEAL ([13]; rate 0.1250 kg/ha) | Preemergence herbicidal rating CHEAL ([13]; rate 0.2500 kg/ha) | CHEAL herbicidal rating ([16]; rate 0.0315 kg/ha)
4.0: SETVI herbicidal rating ([5]; rate 0.0315 kg/ha) | ZEAMX herbicidal rating ([12]; rate 0.0158 kg/ha)
6.0: Herbicidal rating CYPIR ([11]; Rate 0.0313 kg/ha) | Herbicidal rating CYPIR ([11]; Rate 0.0625 kg/ha)
1.0: Preemergence herbicidal rating GLXMAW ([3]; rate 0.1250 kg/ha) | ECHCG herbicidal rating ([8]; rate 0.0158 kg/ha) | Preemergence herbicidal rating CASOB ([14]; rate 0.1250 kg/ha) | Preemergence herbicidal rating CASOB ([14]; rate 0.2500 kg/ha) | Preemergence herbicidal rating TRZAWR ([15]; rate 0.1250 kg/ha) | Preemergence herbicidal rating ZEAMX ([17]; rate 0.1250 kg/ha) | Preemergence herbicidal rating ZEAMX ([17]; rate 0.2500 kg/ha)
0.0: Herbicidal rating CYPSE ([2]; Rate 0.0313 kg/ha) | Herbicidal rating CYPSE ([2]; Rate 0.0625 kg/ha) | Preemergence herbicidal rating GLXMAW ([3]; rate 0.0156 kg/ha) | Preemergence herbicidal rating GLXMAW ([3]; rate 0.0313 kg/ha) | Preemergence herbicidal rating GLXMAW ([3]; rate 0.0625 kg/ha) | Preemergence herbicidal rating IPOHE ([4]; rate 0.0156 kg/ha) | Preemergence herbicidal rating IPOHE ([4]; rate 0.0313 kg/ha) | Preemergence herbicidal rating IPOHE ([4]; rate 0.0625 kg/ha) | Preemergence herbicidal rating ECHCG ([10]; rate 0.0156 kg/ha) | Preemergence herbicidal rating ECHCG ([10]; rate 0.0313 kg/ha) | Preemergence herbicidal rating ECHCG ([10]; rate 0.0625 kg/ha) | Preemergence herbicidal rating ECHCG ([10]; rate 0.1250 kg/ha) | Preemergence herbicidal rating CASOB ([14]; rate 0.0156 kg/ha) | Preemergence herbicidal rating CASOB ([14]; rate 0.0313 kg/ha) | Preemergence herbicidal rating CASOB ([14]; rate 0.0625 kg/ha) | Preemergence herbicidal rating TRZAWR ([15]; rate 0.0156 kg/ha) | Preemergence herbicidal rating TRZAWR ([15]; rate 0.0313 kg/ha) | Preemergence herbicidal rating TRZAWR ([15]; rate 0.0625 kg/ha) | Preemergence herbicidal rating ZEAMX ([17]; rate 0.0156 kg/ha) | Preemergence herbicidal rating ZEAMX ([17]; rate 0.0313 kg/ha) | Preemergence herbicidal rating ZEAMX ([17]; rate 0.0625 kg/ha)
